Measurements as given in US20170312334A1, “METHODS AND COMPOSITIONS FOR TREATING INFLAMMATORY DISORDERS” (ROGNE BIOSCIENCE INC., priority 2014, published 2017).

Legend:
NF-κB [1] = test: NF-κB activation assay: camptothecin induced NF-κB nuclear binding; assay type: cell-based; details: camptothecin 10 μM to 10 nM
Procedure: Treatment of the nuclear extract with the p65 antibody results in a significant decrease in NF-κB/DNA binding. As a negative control, cells are left inactivated and nuclear extracts are treated with the NF-κB consensus sequence, illustrating only a slight background level of NT-κB.
Inhibition of camptothecin mediated activation of NF-κB by the agents disclosed herein is as follows: Induction of NF-κB activation can proceed via a wide range of signaling pathways (Delhase et al., Science 284: 309-313 (1999); Karin, Oncogene 18: 6867-6874 (1999)). Inhibition of NF-κB activation can proceed via the inhibition of many different pathways (Epinat and Gilmore, Oncogene 18: 6896-6909 (1999)). […]
Human Jurkat leukemia T-cells (clone E6-1; Amer. Type Culture Collection, Rockville, Md.) are grown in RPMI-1640 Media (Gibco-BRL, Rockville, Md.) supplemented with 10% fetal bovine serum, penicillin (614 ng/mL), streptomycin (10 μg/mL) and HEPES buffer, pH 7.2 at 37° C., 5% CO2. […] The protein concentration of the extracts is determined according to the Method of Bradford (1976) with BioRad reagents. […] After electrophoresis the gel is analyzed using a phosphorimager (Biorad FX plus) for detection of the NF-κB-DNA binding.

NF-κB [2] = test: Modulation of NF-κB activity compared with steroid (FIG. 17); assay type: cell-based; details: FIG. 17A/17B
RANTES [3] = test: Newly synthesized RANTES in human macrophages (FIG. 18C); assay type: cell-based
[4] = test system: NF-κB-regulated cytokines; test: Secretion of NF-κB-regulated cytokines by mouse macrophages (FIG. 18B); assay type: cell-based
[5] = test system: imiquimod-induced dermal inflammation; test: Imiquimod-induced psoriasis-like skin inflammation model in mice; details: topically applied, in vivo, mice (FIG. 15)
Procedure: Psoriasis is induced by imiquimod applied to the back and ears of the test animals. The initial signs of the disease are observed within 5-6 days as redness and the appearance of plaque type psoriasis, and the disease progresses onto the entire back of the animal.
The study is carried out on female BALC/c mice, 9-10 weeks old at study initiation. […] The animals are divided into group 1 (naïve), group 2 (vehicle+IMQ), group 3 (C15 peptide test agent+IMQ) and group 4 (C15 peptide test agent+IMQ).
The animals are examined for signs of psoriasis on study day 1. These scores served as a baseline for the psoriasis clinical score parameter. Starting from IMQ cream application on day 1, psoriasis responses are examined from day 5 until termination of the study.
Psoriasis reactions (erythema and plaques) are scored and recorded. For plaques, a scale of 0-7 is used with 0 being normal and 7 being no fur with small red dots covering 50%-100% of the back. For erythema, a scale of 0-4 is used with 0 being normal and 4 being very marked. The clinical score is determined by summing the score of each section. The final psoriasis score is the sum of the erythema score and the plaques score.
Right ear thickness is measured before psoriasis induction on study day 1 (baseline). […] Right ear thickness is then measured on study days 5, 8 and 10 (study termination). […]

RANTES [6] = test: Inhibition of LPS/IFNγ-induced cytokine expression (RANTES); assay type: cell-based
TNFα = test: Inhibition of LPS/IFNγ-induced cytokine expression (TNFα); assay type: cell-based

## CC[C@@]1(O)C(=O)OCc2c1cc1n(c2=O)Cc2cc3ccccc3nc2-1 [camptothecin]
NF-κB [1]
  NF-κB/DNA binding due to NF-κB activation: significant amount of NF-κB/DNA binding

## AGEDPHSFYFPGQFA (listed as Homo sapiens) [human C15 peptide]
NF-κB [2]
  NF-κB activity modulation relative to steroid: modulates NF-κB activity more potently than steroid
RANTES [3]; human macrophages (FIG. 18C)
  reduction of newly synthesized RANTES: > 90%
RANTES [3]; human macrophages, RANTES (FIG. 18C)
  potency relative to steroid (Dex): 10^6 time
[4]
  secretion of NF-κB-regulated cytokines: reduced
[5]
  imiquimod-induced dermal inflammation: reduces imiquimod-induced dermal inflammation in vivo in a dose dependent manner

## NNNNNNNNNN
RANTES [6]
  Percent Inhibition of LPS/IFNγ-induced Cytokine Expression: 0%
TNFα
  Percent Inhibition of LPS/IFNγ-induced Cytokine Expression: 1%
